Assay results taken from patent publication US20110223131A1, “ANTIVIRAL COMPOUNDS” (Gilead Sciences, Inc., priority 2010, published 2011).
Converted amounts (≈) assume the structure as drawn. “And” between values parts separate entries of the source, which are not always exact repeats. Equal entries are not always repeated. Where two headings read alike, the source gives them in different places. Each block holds one compound with its values, some of them ahead of it.

What was measured:
HIV-IIIb [1] = experiment: Antiviral assay in MT-2 / MT-4 cells infected with HIV-IIIb (CellTiter-Glo readout); format: cell-based; details: Human immunodeficiency virus 1, MT4, 120 h, 5 days, cell line (MT-2 or MT-4) not printed in Table 1
Experimental: For the antiviral assay utilizing MT-2 cells, 50 μL of 2× test concentration of 5-fold serially diluted compound in culture medium with 10% FBS was added to each well of a 96-well plate (9 concentrations) in triplicate. MT-2 cells were infected with HIV-IIIb at a multiplicity of infection (m.o.i) of 0.01 for 3 hours. Fifty microliters of infected cell suspension in culture medium with 10% FBS (˜1.5×10^4 cells) was then added to each well containing 50 μL of diluted compound. The plates were then incubated at 37° C. for 5 days. For the antiviral assay utilizing MT-4 cells, 20 μL of 2× test concentration of 5-fold serially diluted compound in culture medium with 10% FBS was added to each well of a 384-well plate (7 concentrations) in triplicate. MT-4 cells were next mixed with HIV-IIIb at an m.o.i. of 0.1 and 20 μL of virus/cell mixture (˜2000 cells) was immediately added to each well containing 20 μL of diluted compound. The plates were then incubated at 37° C. for 5 days. After 5 days of incubation, 100 μL of CellTiter-Glo™ Reagent (catalog #G7571, Promega Biosciences, Inc., Madison, Wis.) was added to each well containing MT-2 cells and 40 μl to each well containing MT-4 cells. Cell lysis was carried out by incubating at room temperature for 10 min and then chemiluminescence was read.

[2] = Cytotoxicity (CC50) in MT-2 cells; format: cell-based; details: human
[3] = Aqueous solubility in buffers, HPLC-UV; format: physicochemical; details: aqueous buffer, thermodynamic from solid, 24 to 48 hours
Experimental: Excess solid material was added to aqueous buffers at pH 2 and pH 7 in glass vials to form suspensions. The suspension was stirred on a stirrer plate with a magnetic stirrer bar at room temperature for periods of 24 to 48 hours. The suspension was filtered through a 0.22 micron PVDF syringe filters. The clear filtrate was diluted in acetonitrile and analyzed by HPLC-UV against an external standard for the compound concentration.

[4] = Oral bioavailability from crystalline suspension in dog (plasma PK, LC/MS/MS); format: in vivo, beagle dogs; details: for bioavailability: read-out: F (oral bioavailability)
Experimental: Oral Bioavailability-Determination of Oral Bioavailability of Integrase Inhibitors from Crystalline Suspension in Dog The in-life phase of these studies was carried out at SRI, Menlo Park, Calif. Both Compound (Ia) and Comparator Compound were formulated in 0.5% HPMC […], 0.2% Tween 20, 0.9% benzyl alcohol, and 98.4% water. Both were at 2.00 mg/mL for oral dosing. Each dosing group consisted of 3 male, beagle dogs. At dosing, the animals weighed an average of 10.9 kgs for Compound (Ia) and 10.5 kgs for Comparator Compound. The animals were fasted overnight prior to dose administration and up to 4 hr after dosing. The dogs were pre-treated with pentagastrin at 30 minutes prior to dosing by IM injection. The Compound (Ia) suspension was administered by oral gavage at 1.5 mL/kg to deliver a total dose of 3 mg/kg, while the Comparator Compound suspension was administered by oral gavage at 2 mL/kg for a dose of 4 mg/kg. Serial venous blood samples (approximately 0.8-1.0 mL each) were taken at specified time points (range t=0 to t=24 hr) after dosing from each animal. The blood samples were collected into VacutainerTM tubes containing EDTA-K3 as the anti-coagulant and were immediately placed on wet ice pending centrifugation for plasma. Dosing solutions were analyzed using un-used portions of the dosing solutions, and aliquots of approximately 1 mL of each dosing solution were saved. The concentration of compound in the dosing solution was measured with an HPLC-UV method. Comparator Compound (nominal dose of 4 mg/kg) was dosed at 9387 nmoles/kg, while Compound (Ia) (nominal dose of 3 mg/kg) was dosed at 6563-6566 nmoles/kg. An LC/MS/MS method was used to measure the concentration of test compounds in plasma. Non-compartmental pharmacokinetic analysis was performed on the plasma concentration-time data. The bioanalytical method consisted of treating 100 μL of each plasma sample with 200 μL of acetonitrile (ACN) and 200 μL acetonitrile (ACN) containing internal standard. After protein precipitation and centrifugation, 100 μL of the supernatant was transferred to a clean 96-well plate and mixed with 100 μL of water. An aliquot of 10 μL of the above solution was injected onto an API-4000 triple quadrupole LC/MS/MS system. A Hypersil Gold (#25005-053030, Thermo Electron Corporation) column was used. Mobile phase A contained water with 0.1% formic acid and 1% IPA. Mobile phase B contained acetonitrile with 0.1% formic acid and 1% IPA.

[5] = Cytotoxicity (CC50) in MT-4 cells; format: cell-based; details: human
HIV-IIIb [6] = details: MT-2 cells; as reported in WO 2010/011959; cited from earlier work
[7] = PO 3 mg/kg suspension, dog plasma, individual dogs, 3 mg/kg
[8] = male, beagle, dog, plasma, po, 3 mg/kg, PO 3 mg/kg suspension, dog plasma, individual dogs
[9] = male, beagle, dog, plasma, po, 3 mg/kg, PO 3 mg/kg suspension, dog plasma, mean n = 3
[10] = PO 4 mg/kg suspension, dog plasma, individual dogs, 4 mg/kg
[11] = male, beagle, dog, plasma, po, 4 mg/kg, PO 4 mg/kg suspension, dog plasma, individual dogs

EC50 (HIV-IIIb [1]): 3.4 nM
solubility ([3]; pH 2.2, room temperature): 29.4 µg/mL (≈ 63.2 µM)
solubility ([3]; pH 7.3, room temperature): 31.6 µg/mL (≈ 67.9 µM)
AUCinf [4, 7]: 14.413 µM·h and 21.913 µM·h
AUClast [4, 7]: 14.199 µM·h and 21.762 µM·h
Cmax [4, 7]: 2500 nM and 4240 nM
Tmax [4, 7]: 2.00 h
t1/2 [4, 7]: 4.88 h and 3.64 h
F (oral bioavailability) ([4]; PO 3 mg/kg suspension, dog, individual dogs, 3 mg/kg): 35.0% and 53.6%
F (oral bioavailability) ([4]; PO 3 mg/kg suspension, pentagastrin pretreated dogs, mean n = 3): 45.2%
CL ([4]; listed in table of PO 3 mg/kg suspension, dog plasma, individual dogs, 3 mg/kg): 0.17 L/hr/kg (2×) and 0.15 L/hr/kg
CL ([4]; listed in table of PO 3 mg/kg suspension, dog plasma, mean n = 3): 0.16 L/h/kg
AUC(0-inf) [4, 8]: 19.3 µM·h
Cmax [4, 8]: 3160 nM
half-life [4, 8]: 4.16 h
AUC(0-t) ([4]; male, beagle, dog, plasma, po, 3 mg/kg, PO 3 mg/kg suspension, dog plasma, individual dogs, read-out: AUClast): 19.1 µM·h
Tmax ([4]; male, beagle, dog, plasma, po, 3 mg/kg, PO 3 mg/kg suspension, dog plasma, individual dogs, read-out: Tmax): 1 h
AUC(0-inf) [4, 9]: 18.6 µM·h
Cmax [4, 9]: 3300 ± 878 nM
half-life [4, 9]: 4.22 h
AUC(0-t) ([4]; male, beagle, dog, plasma, po, 3 mg/kg, PO 3 mg/kg suspension, dog plasma, mean n = 3, read-out: AUClast): 18.3 µM·h
Tmax ([4]; male, beagle, dog, plasma, po, 3 mg/kg, PO 3 mg/kg suspension, dog plasma, mean n = 3, read-out: Tmax): ~1.33 h
bioavailability ([4]; male, beagle, dog, plasma, po, 3 mg/kg, PO 3 mg/kg suspension, dog, individual dogs): 47%
bioavailability ([4]; male, beagle, dog, plasma, po, 3 mg/kg, PO 3 mg/kg suspension, pentagastrin pretreated dogs, mean n = 3): 45%
SMILES: CNC(=O)c1c(O)c2ncc(Cc3ccc(F)cc3)c3c2n(c1=O)C[C@](C)(c1nnc(C)o1)O3 [Compound (Ia)]
CC50 at 5 days [2]: 5300 nM
CC50 at 5 days [5]: 42000 nM

solubility ([3]; pH 2.2, room temperature): 1 µg/mL (≈ 2.35 µM)
solubility ([3]; pH 7.3, room temperature): 1 µg/mL (≈ 2.35 µM)
Cmax [4, 10]: 58.5 nM and 16.3 nM and 11.3 nM
Tmax [4, 10]: 2.00 h
F (oral bioavailability) ([4]; PO 4 mg/kg suspension, dog, individual dogs, 4 mg/kg): 0.5% and 0.1% (2×)
CL ([4]; listed in table of PO 4 mg/kg suspension, dog plasma, mean n = 3): 0.15 L/h/kg
AUC(0-inf) ([4]; male, beagle, dog, plasma, po, 4 mg/kg, PO 4 mg/kg suspension, dog plasma, Mean column (only one dog calculable)): 0.427 µM·h
AUC(0-inf) [4, 11]: 0.427 µM·h
half-life [4, 11]: 2.97 h
Tmax ([4]; male, beagle, dog, plasma, po, 4 mg/kg, PO 4 mg/kg suspension, dog plasma, individual dogs, read-out: Tmax): 4 h
Cmax ([4]; male, beagle, dog, plasma, po, 4 mg/kg, PO 4 mg/kg suspension, dog plasma, mean n = 3): 28.7 ± 25.9 nM
AUC(0-t) ([4]; male, beagle, dog, plasma, po, 4 mg/kg, PO 4 mg/kg suspension, dog plasma, mean n = 3, read-out: AUClast (AUC0-t)): 0.177 ± 0.181 µM·h
Tmax ([4]; male, beagle, dog, plasma, po, 4 mg/kg, PO 4 mg/kg suspension, dog plasma, mean n = 3, read-out: Tmax): 2.67 h
bioavailability ([4]; male, beagle, dog, plasma, po, 4 mg/kg, PO 4 mg/kg suspension, pentagastrin pretreated dogs, mean n = 3): 0.2%
SMILES: CNC(=O)c1c(O)c2ncc(Cc3ccc(F)cc3)c3c2n(c1=O)C[C@H](C(=O)NC)O3 [Comparator Compound, reference compound]
EC50 (HIV-IIIb [6]): 6.8 nM
AUClast [4, 10]: 0.385 µM·h and 0.0898 µM·h and 0.0552 µM·h
CL ([4]; listed in table of PO 4 mg/kg suspension, dog plasma, individual dogs, 4 mg/kg): 0.13 L/h/kg and 0.14 L/h/kg and 0.19 L/h/kg
